{"source": "patent US9586931B2", "about": "(Merck Sharp & Dohme Corp., priority 2012, dated 2017)", "data": [{"target": "T1, recombinant human GST-Syk (Homo sapiens, UniProt P43405)", "T1 construct": "purchased Carna Biosciences 08-176", "test": "Homogeneous Time-Resolved Fluorescence (HTRF) assay for the recombinant human Syk enzyme", "assay_type": "biochemical", "conditions": "recombinant human GST-Syk 5 pM, ATP 25 μM, 10-dose titration 10 μM to 0.508 nM; read-out: rhSYK Activity IC50", "description": "Syk inhibition may be determined using the following assay protocol:\nHomogeneous Time-Resolved Fluorescence (HTRF) assay for the recombinant human Syk enzyme: A recombinant GST-hSyk fusion protein was used to measure potency of compounds to inhibit human Syk activity. […] Final volume of the reaction was 10 μL. Phosphorylation of the peptide was allowed to proceed for 45 minutes at room temperature. To quench the reaction and detect the phosphorylated product, 2 nM of a Europium-anti-phosphotyrosine antibody (Perkin Elmer #AD0161) and 70 nM SA-APC (Perkin-Elmer #CR130-100) were added together in 15 mM Tris pH 7.5, 40 mM EDTA, 0.01% tween 20. Final volume of the quenching solution was 10 μL. The resulting HTRF signal was measured after 30 minutes on an EnVision (Perkin-Elmer) reader using a time-resolved fluorescence protocol.", "units": {"IC50": "nM"}, "values": [{"smiles": "Cc1cc(Nc2cc(C(F)(F)F)ccn2)nc(-c2cn(C3(CO)CCC3)nn2)c1", "note": "[Example 13.6, {1-[4-(4-methyl-6-{[4-(trifluoromethyl)pyridin-2-yl]amino}pyridin-2-yl)-1H-1,2,3-triazol-1-yl]cyclobutyl}methanol]", "IC50": 3.2}, {"smiles": "Cc1cc(Nc2nccc(C(F)F)n2)cc(-c2cn(C3CCCCC3(C)O)nn2)c1", "note": "(single isomer, unassigned) [Example 7.20, 2-[4-(3-{[4-(difluoromethyl)pyrimidin-2-yl]amino}-5-methylphenyl)-1H-1,2,3-triazol-1-yl]-1-methylcyclohexanol]", "IC50": 15.4}, {"smiles": "Cc1cc(Nc2nccc(C(F)(F)F)n2)cc(-c2cn(CCC(N)=O)nn2)c1", "note": "[Example 5.75, 3-[4-(3-methyl-5-{[4-(trifluoromethyl)pyrimidin-2-yl]amino}phenyl)-1H-1,2,3-triazol-1-yl]propanamide]", "IC50": 31.6}, {"smiles": "Cc1cc(Nc2cc(C(F)(F)F)ccn2)nc(-c2cn(CC(O)CN3CCOC3=O)nn2)c1", "note": "(centres unmarked) [Example 4.33, 3-{2-hydroxy-3-[4-(4-methyl-6-{[4-(trifluoromethyl)pyridin-2-yl]amino}pyridin-2-yl)-1H-1,2,3-triazol-1-yl]propyl}-1,3-oxazolidin-2-one]", "IC50": 14.9}, {"smiles": "CCOC(=O)C(CC)n1cc(-c2cc(C)cc(Nc3cc(C(F)(F)F)ccn3)n2)nn1", "note": "(racemic) [Example 5.28, ethyl 2-[4-(4-methyl-6-{[4-(trifluoromethyl)pyridin-2-yl]amino}pyridin-2-yl)-1H-1,2,3-triazol-1-yl]butanoate]", "IC50": 76.5}, {"smiles": "Cc1cc(Nc2cc(C(F)(F)F)ccn2)nc(-c2cn(C3CCNC(=O)CC3)nn2)c1", "note": "(racemic) [Example 11.2, 5-[4-(4-methyl-6-{[4-(trifluoromethyl)pyridin-2-yl]amino}pyridin-2-yl)-1H-1,2,3-triazol-1-yl]azepan-2-one]", "IC50": 23.8}, {"smiles": "Cc1cc(Nc2nccc(C(F)(F)F)n2)cc(-c2cn(C3CCC(C(=O)OC(C)(C)C)CC3)nn2)c1", "note": "(centres unmarked) [Example 9.4, tert-butyl 4-[4-(3-methyl-5-{[4-(trifluoromethyl)-pyrimidin-2-yl]amino}-phenyl)-1H-1,2,3-triazol-1-yl]cyclohexane-carboxylate]", "IC50": 7220}, {"smiles": "Cc1cc(Nc2cc(C(F)(F)F)ccn2)nc(-c2cn([C@@H]3CN(C(=O)CO)C[C@H]3O)nn2)c1", "note": "(racemic) [Example 13.1, (+/−)-2-Bydroxy-1-((3R,4R)-3-hydroxy-4-(4-(4-methyl-6-((4-(trifluoromethyl)pyridin-2-yl)amino)pyridin-2-yl)-1H-1,2,3-triazol-1-yl)pyrrolidin-1-yl)ethanone]", "IC50": 4.2}, {"smiles": "Cc1cc(Nc2cc(C(F)(F)F)ccn2)nc(-c2cn(CC(O)C(F)(F)F)nn2)c1", "note": "(racemic) [Example 5.83, 1,1,1-trifluoro-3-[4-(4-methyl-6-{[4-(trifluoromethyl)pyridin-2-yl]amino}pyridin-2-yl)-1H-1,2,3-triazol-1-yl]propan-2-ol]", "IC50": 4.4}, {"smiles": "Cc1cc(Nc2nccc(C(F)(F)F)n2)cc(-c2cn(C[C@H](C)CO)nn2)c1", "note": "[Example 5.72, (2S)-2-methyl-3-[4-(3-methyl-5-{[4-(trifluoromethyl)pyrimidin-2-yl]amino}phenyl)-1H-1,2,3-triazol-1-yl]propan-1-ol]", "IC50": 38.1}, {"smiles": "Cc1cc(Nc2cc(C(F)(F)F)ccn2)nc(-c2cn([C@@H](C)c3ccc(C(=O)O)cc3)nn2)c1", "note": "[Example 9.7, 4-{(1S)-1-[4-(4-methyl-6-{[4-(trifluoromethyl)pyridin-2-yl]amino}pyridin-2-yl)-1H-1,2,3-triazol-1-yl]ethyl}benzoic acid]", "IC50": 3.3}, {"smiles": "Cc1cc(Nc2nccc(C(F)F)n2)cc(-c2cn(CC3OC(=O)NC34CC4)nn2)c1", "note": "(single isomer, unassigned) [Example 7.18, 7-((4-(3-((4-(difluoromethyl)pyrimidin-2-yl)amino)-5-methylphenyl)-1H-1,2,3-triazol-1-yl)methyl)-6-oxa-4-azaspiro[2.4]heptan-5-one]", "IC50": 11.7}, {"smiles": "Cc1cc(Nc2cc(C(F)(F)F)ccn2)nc(-c2cn(CC(O)C(C)(C)O)nn2)c1", "note": "(centres unmarked) [Example 10.12, 3-methyl-1-[4-(4-methyl-6-{[4-(trifluoromethyl)pyridin-2-yl]amino}pyridin-2-yl)-1H-1,2,3-triazol-1-yl]butane-2,3-diol]", "IC50": 23.3}, {"smiles": "COC(=O)[C@@H]1CCCN1C(=O)[C@H](C)n1cc(-c2cc(C)cc(Nc3cc(C(F)(F)F)ccn3)n2)nn1", "note": "[Example 1.56, methyl 1-{(2S)-2-[4-(4-methyl-6-{[4-(trifluoromethyl)pyridin-2-yl]amino}pyridin-2-yl)-1H-1,2,3-triazol-1-yl]propanoyl}prolinate]", "IC50": 423}, {"smiles": "Cc1cc(Nc2cc(C(F)(F)F)ccn2)nc(-c2cn(CCS(C)(=O)=O)nn2)c1", "note": "[Example 5.96, 4-methyl-6-{1-[2-(methylsulfonyl)ethyl]-1H-1,2,3-triazol-4-yl}-N-[4-(trifluoromethyl)pyridin-2-yl]pyridin-2-amine]", "IC50": 47.1}, {"smiles": "COc1ccc(C2CN(C(=O)C(C)n3cc(-c4cc(C)cc(Nc5cc(C(F)(F)F)ccn5)n4)nn3)CCS2)cc1", "note": "(centres unmarked) [Example 1.45, 6-(1-{2-[2-(4-methoxyphenyl)thiomorpholin-4-yl]-1-methyl-2-oxoethyl}-1H-1,2,3-triazol-4-yl)-4-methyl-N-[4-(trifluoromethyl)pyridin-2-yl]pyridin-2-amine]", "IC50": 172}, {"smiles": "Cc1cc(Nc2nccc(C(F)F)n2)cc(-c2cn(C3CCCC(O)C3O)nn2)c1", "note": "(single isomer, unassigned) [Example 25.2, 3-(4-(3-((4-(difluoromethyl)pyrimidin-2-yl)amino)-5-methylphenyl)-1H-1,2,3-triazol-1-yl)cyclohexane-1,2-diol]", "IC50": 7.3}, {"smiles": "Cc1cc(Nc2cc(C(F)F)ccn2)nc(-c2cn(CC(C)(O)CC#N)nn2)c1", "note": "(single isomer, unassigned) [Example 23.2, 4-(4-(6-((4-(difluoromethyl)pyridin-2-yl)amino)-4-methylpyridin-2-yl)-1H-1,2,3-triazol-1-yl)-3-hydroxy-3-methylbutanenitrile]", "IC50": 9}, {"smiles": "Cc1cc(Nc2nccc(C(F)F)n2)cc(-c2cn(C3CCCC(C)(O)C3O)nn2)c1", "note": "(single isomer, unassigned) [Example 29.1, 3-(4-(3-((4-(Difluoromethyl)pyrimidin-2-yl)amino)-5-methylphenyl)-1H-1,2,3-triazol-1-yl)-1-methylcyclohexane-1,2-diol]", "IC50": 19.7}, {"smiles": "CCCC(C(=O)OCC)n1cc(-c2cc(C)cc(Nc3cc(C(F)(F)F)ccn3)n2)nn1", "note": "(racemic) [Example 5.27, ethyl 2-[4-(4-methyl-6-{[4-(trifluoromethyl)pyridin-2-yl]amino}pyridin-2-yl)-1H-1,2,3-triazol-1-yl]pentanoate]", "IC50": 146}, {"smiles": "COc1nc(Nc2cc(C)cc(-c3cn(CC(C)(O)C(C)(C)O)nn3)c2)ncc1F", "note": "(centres unmarked) [Example 21.20, 1-(4-{3-[(5-fluoro-4-methoxypyrimidin-2-yl)amino]-5-methylphenyl}-1H-1,2,3-triazol-1-yl)-2,3-dimethylbutane-2,3-diol]", "IC50": 109}, {"smiles": "Cc1cc(Nc2nccc(C(F)(F)F)n2)cc(-c2cn(CC(=O)N3CCOCC3(C)C)nn2)c1", "note": "[Example 5.66, N-(3-{1-[2-(3,3-dimethylmorpholin-4-yl)-2-oxoethyl]-1H-1,2,3-triazol-4-yl}-5-methylphenyl)-4-(trifluoromethyl)pyrimidin-2-amine]", "IC50": 152}, {"smiles": "Cc1cc(Nc2cc(C(F)(F)F)ccn2)nc(-c2cn(CCC(N)=O)nn2)c1", "note": "[Example 1.3, 3-[4-(4-methyl-6-{[4-(trifluoromethyl)pyridin-2-yl]amino}pyridin-2-yl)-1H-1,2,3-triazol-1-yl]propanamide]", "IC50": 3.8}, {"smiles": "COC(=O)C(c1ccc(F)cc1)n1cc(-c2cc(C)cc(Nc3cc(C(F)(F)F)ccn3)n2)nn1", "note": "(racemic) [Example 5.26, methyl (4-fluorophenyl)[4-(4-methyl-6-{[4-(trifluoromethyl)pyridin-2-yl]amino}pyridin-2-yl)-1H-1,2,3-triazol-1-yl]acetate]", "IC50": 62.9}, {"smiles": "Cc1cc(Nc2cc(C(F)(F)F)ccn2)nc(-c2cn(C/C=C/c3ccncc3)nn2)c1", "note": "[Example 5.33, 4-methyl-6-{1-[(2E)-3-pyridin-4-ylprop-2-en-1-yl]-1H-1,2,3-triazol-4-yl}-N-[4-(trifluoromethyl)pyridin-2-yl]pyridin-2-amine]", "IC50": 58.5}, {"smiles": "Cc1cc(Nc2cc(C(F)(F)F)ccn2)nc(-c2cn(C3CCC(C(N)=O)c4ccccc43)nn2)c1", "note": "(centres unmarked) [Example 1.11, 4-[4-(4-methyl-6-{[4-(trifluoromethyl)pyridin-2-yl]amino}pyridin-2-yl)-1H-1,2,3-triazol-1-yl]-1,2,3,4-tetrahydronaphthalene-1-carboxamide]", "IC50": 20.3}, {"smiles": "Cc1cc(Nc2ncc(F)c(C(F)F)n2)cc(-c2cn(CC3CNC(=O)O3)nn2)c1", "note": "(single isomer, unassigned) [Example 7.35, 5-{[4-(3-{[4-(difluoromethyl)-5-fluoropyrimidin-2-yl]amino}-5-methylphenyl)-1H-1,2,3-triazol-1-yl]methyl}-1,3-oxazolidin-2-one]", "IC50": 7.6}, {"smiles": "Cc1cc(Nc2nccc(C)n2)cc(-c2cn(C3CCCCC3(C)O)nn2)c1", "note": "(single isomer, unassigned) [Example 7.27, 1-methyl-2-(4-{3-methyl-5-[(4-methylpyrimidin-2-yl)amino]phenyl}-1H-1,2,3-triazol-1-yl)cyclohexanol]", "IC50": 90.4}, {"smiles": "Cc1cc(Nc2cc(C(F)(F)F)ccn2)nc(-c2cn(C/C=C/C(=O)O)nn2)c1", "note": "[Example 5.45, (2E)-4-[4-(4-methyl-6-{[4-(trifluoromethyl)pyridin-2-yl]amino}pyridin-2-yl)-1H-1,2,3-triazol-1-yl]but-2-enoic acid]", "IC50": 8.3}]}]}
